In patent US9663800B2, “Alkane exporter and its use” (Nanyang Technological University, priority 2012, dated 2017):

Key:
ABC3 mRNA = assay: Quantitative RT-PCR of ABC3 transcripts after alkane treatment; type: cell-based; conditions: Y. lipolytica CLIB122, 24 h alkane treated vs. untreated, normalized to actin, p<0.05
Excerpt: (§1) FIG. 3. mRNA transcripts levels of ABC2 and ABC3 in Y. lipolytica. Quantitative RT-PCR analysis of ABC2 (A) and ABC3 (B) in Y. lipolytica cells corresponding to treatment with octane, nonane, decane, undecane and dodecane (C8-C12). Each value of qRT-PCR was normalized to β-actin expression levels and expressed as the fold change relative to the levels detected in control samples, which were cells without alkane treatment and set equal to 1. Error bars represent the SD of triplicate.
(§2) To assess whether ABC1, ABC2, ABC3 and ABC4 are involved in alkane transport in Y. lipolytica, we analysed the effects of alkanes with different chain length (C8-C12) on the transcription levels of these four ABC transporter genes using quantitative RT-PCR.
(§3) Total RNA samples from 24 h alkane treated and untreated Y. lipolytica CLIB122 cells were prepared using RNeasy Mini Kit (Qiagen), followed by cDNA synthesis using H minus Reverse transcriptase kit (Fermentas). Quantitative RT-PCR analysis was performed on a Bio-Rad iQ5 real-time PCR detection system using SsoFast EvaGreen Supermix kit (Bio-Rad). The actin gene (YALI0D08272g) was used as reference gene for Y. lipolytica. Relative mRNA levels were derived using comparative CT method.

ABC2 mRNA = assay: Quantitative RT-PCR of ABC2 transcripts after alkane treatment; type: cell-based; conditions: Y. lipolytica CLIB122, 24 h alkane treated vs. untreated, normalized to actin, p<0.05
Excerpt: as §1, §2, §3

S. cerevisiae BY4741 = assay: Alkane susceptibility test in liquid culture; type: cell-based, Saccharomyces cerevisiae; conditions: control cells with empty plasmid, 48 hr, 28° C.
Experimental: FIG. 2. Alkane susceptibility test for S. cerevisiae. The alkane susceptibility was tested in cells expressing ABC2/3 or with empty plasmid. (A) Alkane susceptibility test on agar plate. Serial dilutions of cells expressing ABC2/3 were spotted on agar plates with alkanes (decane, undecane) as vapour phase. Plates were incubated at 28° C. for 2 days. (B) Alkane susceptibility test in liquid culture. Overnight cell culture was diluted into induction medium (final OD600=0.4) with different alkanes (decane & undecane) concentrations. The plates were incubated for 48 hr at 28° C. The OD600 value of each sample was determined and plotted against its corresponding alkane concentration. Symbols for strains are: control sample with empty plasmid (open circle), cells expressing ABC2 (filled circle), cell expressing ABC3 (filled triangle).
Overnight culture was diluted into 5 ml induction medium in 50 ml glass bottle (Sigma) at an initial OD600 of 0.4. Alkanes were added as different final concentration. Bottles were sealed tightly with butyl rubber stopper (Sigma) and silver aluminum seal (Sigma). Liquid culture was performed at 28° C. with shaking. Growth was monitored by measuring the OD600 at different time point. Cell culture used for time point OD checking was collected from the glass bottle using needle and syringe.
To further analyze the effect of ABC2 and ABC3 toward decane and undecane, alkane susceptibility tests in liquid culture were conducted. […] With the expression of ABC2, decane tolerance was boosted about 80-fold (20% vs. 0.25% decane) and cells can survive in 20% undecane. For ABC3, decane tolerance is increased slightly by about 3-fold (0.75% vs. 0.25% decane) and cells are resistant to 20% undecane. It is apparent that the expression of ABC2 and ABC3 transporters improved the tolerance toward C10 and C11 alkanes.

SMILES	mRNA levels of ABC3 (ABC3 mRNA)	mRNA levels of ABC2 (ABC2 mRNA)	alkane concentration causing a significant decrease in viability of the control cells (S. cerevisiae BY4741)
CCCCCCCCC [nonane]	significantly increased	significantly increased	
CCCCCCCCCC [decane]	significantly increased	significantly increased	0.5%
